Where “and” joins values, the source holds several entries; their conditions need not be identical. Equal values may be shown once. Values belong to the molecule of their own block, whether it stands above or below them.
Experiments:
[1] = Insulin oral delivery, serum human insulin by ELISA; conditions: rats
Description: Oral dosing (PO) compositions of delivery agent compound and human zinc insulin (minimum 26 IU/mg available from Calbiochem—Novabiochem Corp, La Jolla, Calif.) were prepared in deionized water. […] The pH was adjusted to about 7 to 8.5 with NaOH or HCl. […] The final delivery agent compound dose, insulin dose and dose volume amounts are listed below in Table 8.
(§1) The typical dosing and sampling protocols were as follows.
Serum insulin levels were determined with an Insulin ELISA Test Kit (Kit # DSL-10-1600 from Diagnostic Systems Laboratories, Inc., Webster, Tex.), modifying the standard protocol in order to optimize the sensitivity and linear range of the standard curve for the volumes and concentrations of the samples used in the present protocol. […] The five values for each time point were averaged and the results plotted as serum insulin concentration versus time.

[2] = Insulin pulmonary delivery, serum insulin by ELISA, ratio to insulin-alone control; type: in vivo, Sprague-Dawley rats; conditions: rats
Description: Dosing compositions of delivery agent compound and human insulin in water were prepared. Typically, to 1.5 mg of delivery agent compound was added deionized water to bring the volume to 1.0 ml, and the solution was vortexed. […] The pH was adjusted to between about 7.0 to 8.5 with NaOH or HCl. […] The final delivery agent compound dose, insulin dose and volume dose amounts are listed below in Table 9.
The typical dosing and sampling protocols were as follows. […] A control group of five animals was dosed insulin alone. A tracheal instillator for rodents, equipped with light (available from Penn Century, Inc., Pittsburgh, Pa.) was filled with dosing solution and inserted down the throat until the needle went into the trachea (confirmed visually). The dosing solution was administered by pressing the plunger.
Blood samples from each animal were collected serially from the tail artery, typically at 5, 15, 30, 60 and 120 minutes after dosing. […] The ratio of the area under the curve (AUC) for the test group versus that of the control group is reported below. The ratio of the maximum serum insulin concentration (Cmax) for the test group versus that of the control group is also reported below.

[3] = Salmon calcitonin (sCT) oral delivery, serum sCT by EIA; conditions: rats, delivery agent compound dose 150 mg/kg, sCT dose 30 μg/kg
Description: Oral dosing (PO) compositions of a delivery agent compound and salmon calcitonin (sCT) in deionized water were prepared as described in Table 2 below. […] Either the sodium salt of the compound was used or the free acid was converted to the sodium salt by stirring the resultant solution and adding one equivalent of sodium hydroxide (1.0 N) and diluting with water. The solution was vortexed, then heated (about 37° C.) and sonicated. The pH was adjusted to about 7 (about 6.5 to 8.5) with NaOH or HCl. 90 μg sCT from a sCT stock solution (2 mg/ml made by adding 10001 pH 4 phosphate buffer to sCT and allowing it to go into solution by sitting for about 10-20 minutes and periodically gently inverting) was added to the solution.
The typical dosing and sampling protocols were as follows. Male Sprague-Dawley rats weighing between 200-250 g were fasted for 24 hours and administered ketamine (44 mg/kg) and chlorpromazine (1.5 mg/kg) 15 minutes prior to dosing and again as needed to maintain anesthesia. A dosing group of five animals was administered one of the dosing solutions. For oral dosing, an 11 cm Rusch 8 French catheter was adapted to a 1 ml syringe with a pipette tip. The syringe was filled with dosing solution by drawing the solution through the catheter, which was then wiped dry. The catheter was placed down the esophagus leaving 1 cm of tubing past the incisors. Solution was administered by pressing the syringe plunger.
Blood samples were collected serially from the tail artery, typically at time=0, 10, 20, 30, 60 and 90 minutes. […] Numbers were adjusted according to baseline values obtained at time=0. The results from the animals in each dosing group were averaged for each time point.

[4] = Daptomycin oral delivery, plasma daptomycin by HPLC; type: in vivo, Sprague-Dawley rats; conditions: rats, delivery agent compound dose 200 mg/kg, daptomycin dose 50 mg/kg, volume dose 1 mL/kg
Description: Dosing solutions containing a delivery agent compound and daptomycin (Cubist Pharmaceuticals, Cambridge, Mass.) were prepared in 0.9% normal saline. […] This mixture was vortexed and placed in a sonicator (about 37° C.). The pH was adjusted to about 7.0-7.5 with aqueous HCl or NaOH. […] The mixture was vortexed to produce a uniform solution, also using sonication if necessary. The delivery agent compound solution was mixed with daptomycin from a stock solution (200 mg daptomycin/mL in 0.9% normal saline and the pH adjusted, if necessary, to between 6.0-7.0 with NaOH or HCl). The stock solution was stored frozen (−20° C.) wrapped in foil, then thawed and warmed gradually to about 25° C. before using. The delivery agent-daptomycin mixture was vortexed at low speed to produce a uniform solution. The pH was adjusted to about 7.0-7.5 with aqueous NaOH. The solution was then diluted with 0.9% normal saline to the desired volume (usually 2.0 ml) and concentration and stored wrapped in foil before use.
as §1
Heparinized rat blood samples were collected via the ventral tail artery, typically at 0.25, 0.5, 0.75, 1.0, 2.0, and 4.0 hours after dosing, and stored on ice. Blood samples were then spun (centrifuged) at 11,500 rpm for 4 minutes at 4° C. to obtain the plasma (supernatant), which was stored at −70° C. The plasma daptomycin concentrations were measured by isocratic reversed phase HPLC, keeping samples at 4° C. during analysis. Blank plasma studies show baseline values of zero.
Daptomycin blood concentrations results from the individual animals in each dosage group were averaged for each time point.

[5] = Interferon oral delivery, serum IFN by immunoassay; type: in vivo, Sprague-Dawley rats; conditions: rats, delivery agent compound 200 mg/kg, IFN 1 mg/kg, 1 ml/kg
Description: Dosing solutions of delivery agent compound and human interferon (IFN) were prepared in deionized water. […] This mixture was vortexed and placed in a sonicator (about 37° C.). The pH was adjusted to about 7.0 to 8.5 with aqueous NaOH. The mixture was vortexed to produce a uniform suspension or solution, also using sonication and heat if necessary.
as §1
Serum IFN concentrations were quantified using Cytoscreen Immunoassay Kit for human IFN-alpha (catalog # KHC4012 from Biosource International, Camarillo, Calif.). Previous studies indicated baseline values of about zero.

[6] = Recombinant human growth hormone (rhGH) oral delivery, serum rhGH by immunoassay; conditions: oral gavage, rats, delivery agent compound 200 mg/kg, rhGH 3 mg/kg
Description: Oral gavage (PO) dosing solutions of delivery agent compound and rhGH in phosphate buffer were prepared by mixing. A solution of the delivery agent compound was made either with the sodium salt of the delivery agent compound or by converting the free acid to its sodium salt.
The typical dosing and sampling protocols were as follows. Male Sprague-Dawley rats weighing 200-250 g were fasted for 24 hours and administered ketamine (44 mg/kg) and chlorpromazine (1.5 mg/kg) 15 minutes prior to dosing and again as needed to maintain anesthesia. A dosing group of five animals was administered one of the dosing solutions. An 11 cm Rusch 8 French catheter was adapted to a 1 ml syringe with a pipette tip. The syringe was filled with dosing solution by drawing the solution through the catheter, which was then wiped dry. The catheter was placed down the esophagus leaving 1 cm of tubing past the incisors. The dosing solution was administered by pressing the syringe plunger.
Blood samples were collected serially from the tail artery typically at time=15, 30, 45, 60 and 90 minutes. The five samples from each time period were pooled (except for those samples for which standard deviation (SD) and standard error (SE) are reported). Serum rHGH concentrations were quantified by an rHGH immunoassay test kit (Kit # K1F4015 from Genzyme Corporation Inc., Cambridge, Mass.).

[7] = pulmonary, volume 0.4 ml/kg, delivery agent compound 0.03 mg/kg, insulin 0.3 mg/kg (so in the source)

Mean Peak Serum [INS] ± SD ([1]; delivery agent compound 200 mg/kg, insulin 0.5 mg/kg, 1 ml/kg): 70.32 ± 149.1 μU/ml | Mean Ratio of AUC for insulin + compound versus AUC for insulin alone [2, 7]: 1.01 | Mean Peak Serum sCT (pg/ml ± SD) (SE) ([3]; dose volume 1 (ml), 150 mg/kg): 125 ± 187 pg/mL and 172 ± 158 pg/mL
Compound: O=C(O)CCCCCOc1cccc(O)c1 [Compound 45]

Cmax (serum insulin) [2, 7]: 135.56 ± 80.96 μU/ml | Mean Ratio of AUC for insulin + compound versus AUC for insulin alone [2, 7]: 1.30 | Mean Peak Serum sCT (pg/ml ± SD) (SE) ([3]; dose volume 3 (ml)): 95 ± 156 pg/mL | Mean Peak Serum sCT (pg/ml ± SD) (SE) ([3]; dose volume 4 (ml)): 35 ± 49 pg/mL
Compound: O=C(O)CCCCCCCCCOc1ccc(O)cc1 [Compound 48]

Mean Peak Serum [INS] ± SD ([1]; delivery agent compound 100 mg/kg, insulin 3 mg/kg, 0.5 ml/kg): 335.7 ± 227.05 μU/ml | Mean Ratio of AUC for insulin + compound versus AUC for insulin alone [2, 7]: 0.54
Compound: O=C(O)CCCCCOc1ccc(O)cc1 [Compound 49]

Mean Peak Serum [INS] ± SD ([1]; delivery agent compound 200 mg/kg, insulin 3 mg/kg, 1 ml/kg): 3322 ± 2721 μU/ml | Mean plasma Cmax [daptomycin] ± SD [4]: 8590 ± 4210 ng/mL
Compound: CC(=O)c1cc(O)ccc1OCCCCCCCC(=O)O [Compound 57, (4-hydroxy-2-acetylphenyl)-8-oxyoctanoic acid]

Mean Peak Serum [INS] ± SD ([1]; delivery agent compound 100 mg/kg, insulin 3 mg/kg, 1 ml/kg): 7.843 ± 8.527 μU/ml | Cmax (serum insulin) ([2]; Table 9 pulmonary delivery, volume 1 ml/kg, delivery agent compound 3 mg/kg, insulin 100 mg/kg (so in the source)): 7.843 μU/ml
Compound: CCC(=O)c1ccc(OCCCCCCCC(=O)O)cc1 [Compound 63]

Mean Peak Serum [IFN] ± SD [5]: 3.4451 ± 4.5 ng/mL | Mean Peak Serum sCT (pg/ml ± SD) (SE) ([3]; dose volume 1 (ml), 150 mg/kg): 142 ± 142 pg/mL and 256 ± 158 pg/mL | Mean Peak Serum sCT (pg/ml ± SD) (SE) ([3]; dose volume 2 (ml)): 681 ± 419 pg/mL | Mean Peak Serum [rhGH] ([6]; volume dose 1 ml): 15 ng/mL and 14.7 ng/mL
Compound: O=C(O)c1ccc(COc2ccc(O)cc2)cc1 [Compound 67]
Cmax (serum insulin) ([2]; pulmonary, volume 0.4 ml/kg, delivery agent compound 0.03 mg/kg, insulin 0.06 mg/kg (so in the source)): 82.23 ± 47.16 μU/ml and 70.85 ± 36.24 μU/ml | Cmax (serum insulin) ([2]; pulmonary, volume 0.4 ml/kg, delivery agent compound 0.03 mg/kg, insulin 0.15 mg/kg (so in the source)): 84.40 ± 15.06 μU/ml and 91.20 ± 37.30 μU/ml | Cmax (serum insulin) [2, 7]: 66.04 ± 47.42 μU/ml and 92.14 ± 36.17 μU/ml and 115.04 ± 68.23 μU/ml

Cmax (serum insulin) [2, 7]: 57.82 ± 35.28 μU/ml | Mean Peak Serum sCT (pg/ml ± SD) (SE) ([3]; dose volume 2 (ml)): 302 ± 246 pg/mL | Mean Peak Serum [rhGH] ([6]; volume dose 3 ml): 5.94 ng/mL
Compound: O=C(O)CCCCCCCOc1ccc(F)cc1F [Compound 71]

Cmax (serum insulin) [2, 7]: 80.56 ± 30.51 μU/ml | Mean Peak Serum [rhGH] ([6]; volume dose 1 ml): 0 ng/mL
Compound: O=C(O)c1ccc(COc2ccccc2Cl)cc1 [Compound 78]
